# Literature values, collected in patent US20160264934A1, “METHODS FOR MODULATING AND ASSAYING m6A IN STEM CELL POPULATIONS” (THE GENERAL HOSPITAL CORPORATION, priority 2015, published 2016).
# Target: ALKBH5 (Homo sapiens, UniProt Q6P6C2)
# Settings: HPLC-based assays
# Chain of ALKBH5 (Q6P6C2 whole entry, species assumed): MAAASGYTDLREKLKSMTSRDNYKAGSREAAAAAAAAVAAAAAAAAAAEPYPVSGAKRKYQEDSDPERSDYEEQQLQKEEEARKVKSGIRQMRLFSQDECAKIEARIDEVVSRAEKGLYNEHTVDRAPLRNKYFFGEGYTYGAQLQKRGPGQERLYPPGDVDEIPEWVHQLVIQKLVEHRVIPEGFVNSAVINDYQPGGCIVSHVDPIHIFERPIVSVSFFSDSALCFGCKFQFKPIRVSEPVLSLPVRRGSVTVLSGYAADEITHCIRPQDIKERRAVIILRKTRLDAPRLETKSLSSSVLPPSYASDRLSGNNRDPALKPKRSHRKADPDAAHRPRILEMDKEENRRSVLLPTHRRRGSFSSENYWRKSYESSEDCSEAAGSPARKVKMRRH
structure (smiles),measurement,value
Cc1ccc(Cl)c(Nc2ccccc2C(=O)O)c1Cl [meclofenamic acid],inhibition of ALKBH5,no inhibition
